PubChem BioAssay AID248 (DTP/NCI, 2004)
Toxic doses and inconclusive results are not listed. Rule as the data show it: active = T/C of 150% or more; inactive = T/C below 125%.

Test system: L1210 leukemia ip in BDF1 mice, survival T/C
Experiment: NCI In Vivo Anticancer Drug Screen. Data for tumor model L1210 Leukemia (intraperitoneal) in B6D2F1 (BDF1) mice
Conditions: endpoint: mean survival time, higher = longer survival
In short: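 In this screen, tumor-bearing mice given compound are compared to those given vehicle, and their survival values are reported as a treated-to-control quotient.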

[1] = dose: 100.0 mg/kg/injection, schedule: Q04DX003 (ip), vehicle: saline
[2] = dose: 200.0 mg/kg/injection, schedule: Q04DX003 (ip), vehicle: saline
[3] = dose: 400.0 mg/kg/injection, schedule: Q04DX003 (ip), vehicle: saline
[4] = dose: 100.0 mg/kg/injection, schedule: Q01DX009 (ip), vehicle: saline with Tween-80
[5] = dose: 100.0 mg/kg/injection, schedule: Q04DX003 (ip), vehicle: saline with Tween-80
[6] = dose: 200.0 mg/kg/injection, schedule: Q01DX009 (ip), vehicle: saline with Tween-80
[7] = dose: 200.0 mg/kg/injection, schedule: Q04DX003 (ip), vehicle: saline with Tween-80
[8] = dose: 400.0 mg/kg/injection, schedule: Q01DX009 (ip), vehicle: saline with Tween-80
[9] = dose: 400.0 mg/kg/injection, schedule: Q04DX003 (ip), vehicle: saline with Tween-80
[10] = dose: 100.0 mg/kg/injection, schedule: Q01DX001 (ip), vehicle: saline
[11] = dose: 100.0 mg/kg/injection, schedule: Q01DX009 (ip), vehicle: saline
[12] = dose: 200.0 mg/kg/injection, schedule: Q01DX001 (ip), vehicle: saline
[13] = dose: 200.0 mg/kg/injection, schedule: Q01DX009 (ip), vehicle: saline
[14] = dose: 400.0 mg/kg/injection, schedule: Q01DX001 (ip), vehicle: saline
[15] = dose: 400.0 mg/kg/injection, schedule: Q01DX009 (ip), vehicle: saline
[16] = dose: 25.0 mg/kg/injection, schedule: Q04DX002 (ip), vehicle: Klucel (hydroxypropylcellulose) (HPC)
[17] = dose: 50.0 mg/kg/injection, schedule: Q04DX002 (ip), vehicle: Klucel (hydroxypropylcellulose) (HPC)
[18] = dose: 200.0 mg/kg/injection, schedule: Q04DX002 (ip), vehicle: Klucel (hydroxypropylcellulose) (HPC)
[19] = dose: 100.0 mg/kg/injection, schedule: Q04DX002 (ip), vehicle: Klucel (hydroxypropylcellulose) (HPC)
[20] = dose: 400.0 mg/kg/injection, schedule: Q04DX002 (ip), vehicle: Klucel (hydroxypropylcellulose) (HPC)
[21] = dose: 100.0 mg/kg/injection, schedule: Q04DX002 (ip), vehicle: saline
[22] = dose: 200.0 mg/kg/injection, schedule: Q04DX002 (ip), vehicle: saline
[23] = dose: 400.0 mg/kg/injection, schedule: Q04DX002 (ip), vehicle: saline
[24] = dose: 75.0 mg/kg/injection, schedule: Q01DX001 (ip), vehicle: saline

Measured: T/C

Cc1ccc2ccccc2n1
inactive: [1] 91 % of control | [2] 93 % of control | [3] 98 % of control

Oc1cc(CN2CCCC2)c(O)cc1CN1CCCC1
inactive: dose: 75.0 mg/kg/injection, schedule: Q01DX001 (ip), vehicle: carboxymethylcellulose (CMC) 111 % of control | dose: 150.0 mg/kg/injection, schedule: Q01DX001 (ip), vehicle: carboxymethylcellulose (CMC) 105 % of control

CCNC(=O)Nc1ccc(N(CC)CC)cc1
inactive: [4] 93 % of control | [5] 103 % of control | [6] 87 % of control | [7] 96 % of control | [8] 98 % of control | [9] 96 % of control

Cn1ccc2c([N+](=O)[O-])cccc2c1=O
inactive: dose: 25.0 mg/kg/injection, schedule: Q04DX003 (ip), vehicle: Klucel (hydroxypropylcellulose) (HPC) 92 % of control | dose: 50.0 mg/kg/injection, schedule: Q04DX003 (ip), vehicle: Klucel (hydroxypropylcellulose) (HPC) 98 % of control

COc1cc(CCNC(=O)Cc2ccc(OCc3ccccc3)c(OC)c2)ccc1OCc1ccccc1
inactive: [4] 89 % of control | [6] 101 % of control | [8] 94 % of control

O=C1CN(CCl)C(=O)CN1CCl
inactive: dose: 50.0 mg/kg/injection, schedule: Q01DX009 (ip), vehicle: water 100 % of control | dose: 100.0 mg/kg/injection, schedule: Q01DX009 (ip), vehicle: water 101 % of control | dose: 100.0 mg/kg/injection, schedule: Q04DX003 (ip), vehicle: water 113 % of control | dose: 200.0 mg/kg/injection, schedule: Q04DX003 (ip), vehicle: water 110 % of control | dose: 400.0 mg/kg/injection, schedule: Q04DX003 (ip), vehicle: water 113 % of control

CC(=O)NCC(C)(C)c1ccccc1
inactive: [10] 96 % of control | [11] 102 % of control | [12] 102 % of control | [13] 100 % of control | [14] 110 % of control | [15] 102 % of control

CCN(CC)C(=S)SCn1nc(Cl)c2ccc([N+](=O)[O-])cc21
inactive: [10] 98 % of control | [12] 98 % of control | [14] 91 % of control

O=C(O)c1cc(I)c(I)c(I)c1
inactive: [5] 97 % of control | [7] 101 % of control

CN1C2CCC(O)C1CC2 (stereo not drawn)
inactive: [10] 102 % of control | [12] 102 % of control

CC(C)CN=C(N)CSS(=O)(=O)O
inactive: dose: 12.5 mg/kg/injection, schedule: Q04DX002 (ip), vehicle: Klucel (hydroxypropylcellulose) (HPC) 102 % of control | [16] 105 % of control | [17] 94 % of control | [18] 94 % of control

CCOC(=O)c1c[n]([Hg][n]2cc(C(=O)OCC)c(Nc3ccccc3Cl)nc2=O)c(=O)nc1Nc1ccccc1Cl
inactive: dose: 3.0 mg/kg/injection, schedule: Q01DX009 (ip), vehicle: saline with Tween-80 96 % of control | dose: 6.0 mg/kg/injection, schedule: Q01DX009 (ip), vehicle: saline with Tween-80 96 % of control | dose: 12.0 mg/kg/injection, schedule: Q01DX009 (ip), vehicle: saline with Tween-80 95 % of control | dose: 12.5 mg/kg/injection, schedule: Q04DX003 (ip), vehicle: saline with Tween-80 100 % of control

O=C(O)C1CCCCC1C(=O)Nc1ccc(F)cc1 (stereo not drawn)
inactive: [4] 103 % of control | [5] 102 % of control | [6] 90 % of control | [7] 102 % of control | [8] 105 % of control | [9] 96 % of control

COc1cc(/C=N/NC(=O)c2ccccc2N)ccc1O
inactive: [19] 98 % of control | [18] 106 % of control | [20] 109 % of control

S=C(Nc1ccc(Cl)c(Cl)c1)SCc1ccc(Cl)c(Cl)c1
inactive: dose: 15.0 mg/kg/injection, schedule: Q04DX003 (ip), vehicle: saline 97 % of control | dose: 30.0 mg/kg/injection, schedule: Q04DX003 (ip), vehicle: saline 101 % of control | dose: 60.0 mg/kg/injection, schedule: Q04DX003 (ip), vehicle: saline 101 % of control | [21] 88 % of control | [22] 112 % of control | [23] 88 % of control

Cc1ccc(P(=O)(O)O)c([N+](=O)[O-])c1
inactive: [10] 94 % of control | [12] 92 % of control

COc1ccc(/C=C\C(=O)NCCCCNC(=O)/C=C/c2ccc(OC)cc2)cc1
inactive: [10] 101 % of control | [12] 88 % of control

CC(C)OC(=O)NN1CCCCCC1
inactive: [19] 92 % of control | [18] 105 % of control | [20] 96 % of control

CC1(C)OC2OC(CO)C(O)C(O)C2O1 (stereo not drawn)
inactive: [21] 94 % of control | [22] 94 % of control | [23] 94 % of control

NCCc1nc(C(=O)O)cs1
inactive: [10] 104 % of control | [11] 86 % of control | [1] 103 % of control | [12] 102 % of control | [13] 97 % of control | [2] 119 % of control | [14] 104 % of control | [15] 86 % of control | [3] 92 % of control

O=C(O)CCc1ccc(-c2cccc([N+](=O)[O-])c2)o1
inactive: dose: 100.0 mg/kg/injection, schedule: Q04DX002 (ip), vehicle: saline with Tween-80 102 % of control | dose: 200.0 mg/kg/injection, schedule: Q04DX002 (ip), vehicle: saline with Tween-80 105 % of control | dose: 400.0 mg/kg/injection, schedule: Q04DX002 (ip), vehicle: saline with Tween-80 98 % of control

NCC1OC(OC2C(CO)OC(OC3C(O)C(N)CC(N)C3OC3OC(CO)C(O)CC3N)C2O)C(N)C(O)C1OC1OC(CO)C(O)C(O)C1O (stereo not drawn)
inactive: dose: 100.0 mg/kg/injection, schedule: Q01DX005 (ip), vehicle: saline 96 % of control | [11] 100 % of control | dose: 200.0 mg/kg/injection, schedule: Q01DX005 (ip), vehicle: saline 101 % of control | [13] 110 % of control | dose: 400.0 mg/kg/injection, schedule: Q01DX005 (ip), vehicle: saline 101 % of control | [15] 100 % of control

CC(=O)Nc1ccc(O)cc1[N+](=O)[O-]
inactive: dose: 100.0 mg/kg/injection, schedule: Q04DX003 (ip), vehicle: Klucel (hydroxypropylcellulose) (HPC) 107 % of control | dose: 200.0 mg/kg/injection, schedule: Q04DX003 (ip), vehicle: Klucel (hydroxypropylcellulose) (HPC) 103 % of control | dose: 400.0 mg/kg/injection, schedule: Q04DX003 (ip), vehicle: Klucel (hydroxypropylcellulose) (HPC) 103 % of control

CC(C)(C)C(Br)C(Br)Br (stereo not drawn) (tested in a mixture with another compound)
inactive: dose: 50.0 mg/kg/injection, schedule: Q01DX009 (ip), vehicle: saline with Tween-80 101 % of control | [4] 97 % of control | [6] 89 % of control

CCN1CCCC(Nc2cc(C)nc(/N=C(\N)Nc3ccc(Cl)c(Cl)c3)n2)C1 (stereo not drawn)
inactive: [24] 92 % of control

OCCN(CC1C(c2ccccc2)C1c1ccccc1)C1CCCCC1 (stereo not drawn)
inactive: dose: 6.25 mg/kg/injection, schedule: Q04DX002 (ip), vehicle: Klucel (hydroxypropylcellulose) (HPC) 98 % of control | [16] 90 % of control | [17] 97 % of control | [19] 97 % of control

CC(=O)Nc1cc(Cl)c(Cl)cc1Cl
inactive: [5] 103 % of control | [7] 102 % of control | [9] 96 % of control

O=[N+]([O-])c1ccc(N/N=C\c2ccc3ccccc3n2)cc1
inactive: [11] 97 % of control | [13] 104 % of control | [15] 91 % of control

Cn1c(=O)c2c(ncn2CCO)n(C)c1=O
inactive: [10] 100 % of control | [11] 99 % of control | [1] 104 % of control | [12] 104 % of control | [13] 100 % of control | [2] 101 % of control | [14] 102 % of control | [15] 105 % of control | [3] 100 % of control

CN(C)CCCN(CCCN(C)C)Cc1ccccc1
inactive: [24] 104 % of control | dose: 150.0 mg/kg/injection, schedule: Q01DX001 (ip), vehicle: saline 97 % of control

C/C(=N\OC(=O)Nc1ccccc1)c1ccccc1
inactive: dose: 100.0 mg/kg/injection, schedule: Q01DX001 (ip), vehicle: carboxymethylcellulose (CMC) 98 % of control | dose: 400.0 mg/kg/injection, schedule: Q01DX001 (ip), vehicle: carboxymethylcellulose (CMC) 95 % of control

Nc1ncnc2c1ncn2C1OC(CO)C(O)C(O)C1O (stereo not drawn)
inactive: [10] 103 % of control [middle of 4 runs] | [12] 100 % of control [middle of 4 runs] | [14] 100 % of control [middle of 4 runs]
